Biological target: memapsin 2 (Homo sapiens, UniProt P56817)
Test: Inhibition of memapsin 2 beta-secretase activity (fluorogenic substrate FS-2)
Type: biochemical
Conditions: pH 4, 37° C., read-out: M2 Ki
Experimental: Potency of compounds were determined by measurement of their inhibition of memapsin 2 activity toward a fluorescent substrate. Kinetic inhibition experiments were performed using the procedure as described in Ermolieff, et al. (Biochemistry 39:12450-12456 (2000), the teachings of which are incorporated hereby in their entirety). Briefly, assays were performed at pH 4, 37° C., by pre-incubation of memapsin 2 enzyme with compound for 20 minutes. Activity measurements were initiated by addition of a fluorogenic substrate FS-2 (Bachem Americas, Torrance, Calif.) MCA-SEVNLDAEFR-DNP (SEQ ID NO.: 2). The substrate was derived from 10 amino acids of the human amyloid precursor protein (APP), with the Swedish variant amino acids at the beta-secretase cleavage site. The terminal amino acid was modified from arginine to lysine to facilitate derivatization with a functional group for detection by autofluorescence. The amino acid sequence of the “core” peptide of the substrate is SEVNLDAEFK (SEQ ID NO.: 3). The amino terminus was derivatized with (7-methoxycoumarin-4-yl)acetyl (MCA), and the epsilon amine of the lysine side chain of the terminal residue (K in sequence SEVNLDAEFK (SEQ ID NO.: 3)) was derivatized with 2,4-dinitorphenyl (DNP).

Sequence of memapsin 2 (P56817 46-501): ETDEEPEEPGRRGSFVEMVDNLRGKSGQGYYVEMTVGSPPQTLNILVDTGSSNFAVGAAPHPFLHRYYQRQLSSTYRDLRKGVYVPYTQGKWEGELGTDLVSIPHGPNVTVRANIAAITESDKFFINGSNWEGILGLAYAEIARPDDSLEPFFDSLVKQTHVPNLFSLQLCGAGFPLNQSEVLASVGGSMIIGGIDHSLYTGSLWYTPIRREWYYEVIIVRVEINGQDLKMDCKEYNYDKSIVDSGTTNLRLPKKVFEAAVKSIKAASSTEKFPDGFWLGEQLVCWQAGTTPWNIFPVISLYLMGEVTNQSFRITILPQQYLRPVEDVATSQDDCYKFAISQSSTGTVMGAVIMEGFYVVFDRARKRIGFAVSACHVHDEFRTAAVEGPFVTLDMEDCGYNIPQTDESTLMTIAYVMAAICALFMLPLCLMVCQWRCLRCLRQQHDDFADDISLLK

Ki [nM] | Structure (SMILES)
> 750 | Cc1csc([C@H]2CCCN2C(=O)c2cccc(C(=O)N[C@@H](Cc3ccccc3)[C@H](O)[C@H]3CC[C@@H](c4ccccc4)N3)c2)n1 [1-29, N-((1R,2S)-1-hydroxy-3-phenyl-1-((2R,5S)-5-phenylpyrrolidin-2-yl)propan-2-yl)-3-((R)-2-(4-methylthiazol-2-yl)pyrrolidine-1-carbonyl)benzamide]
< 250 | Cc1csc([C@H]2CCCN2C(=O)c2cc(C(=O)N[C@@H](Cc3ccccc3)[C@H](O)[C@H]3C[C@H](F)CN3)cc(-n3cccc3)c2)n1 [1-59, N-((1R,2S)-1-((2R,4S)-4-fluoropyrrolidin-2-yl)-1-hydroxy-3-phenylpropan-2-yl)-3-((R)-2-(4-methylthiazol-2-yl)pyrrolidine-1-carbonyl)-5-(1H-pyrrol-1-yl)benzamide]
< 250 | Cc1csc([C@H]2CCCN2C(=O)c2cccc(C(=O)N[C@@H](Cc3ccccc3)[C@H](O)[C@@H]3NCCC3(F)F)c2)n1 [1-57, N-((1S,2S)-1-((S)-3,3-difluoropyrrolidin-2-yl)-1-hydroxy-3-phenylpropan-2-yl)-3-((R)-2-(4-methylthiazol-2-yl)pyrrolidine-1-carbonyl)benzamide]
< 250 | CO[C@H]1CN[C@@H]([C@H](O)[C@H](Cc2ccccc2)NC(=O)c2cccc(C(=O)N3CCC[C@@H]3c3nc(C)cs3)c2)C1 [1-82, N-((1S,2S)-1-hydroxy-1-((2R,4R)-4-methoxypyrrolidin-2-yl)-3-phenylpropan-2-yl)-3-((R)-2-(4-methylthiazol-2-yl)pyrrolidine-1-carbonyl)benzamide]
> 750 | Cc1csc([C@H]2CCCN2C(=O)c2cccc(C(=O)N[C@@H](Cc3ccccc3)[C@H](O)[C@@H]3CC[C@H](c4ccccc4)N3)c2)n1 [1-31, N-((1R,2S)-1-hydroxy-3-phenyl-1-((2S,5R)-5-phenylpyrrolidin-2-yl)propan-2-yl)-3-((R)-2-(4-methylthiazol-2-yl)pyrrolidine-1-carbonyl)benzamide]
< 250 | Cc1csc([C@H]2CCCN2C(=O)c2cc(Cl)cc(C(=O)N[C@@H](Cc3ccccc3)[C@H](O)[C@H]3CCCN3)c2)n1 [1-56, 3-chloro-N-((1R,2S)-1-hydroxy-3-phenyl-1-((R)-pyrrolidin-2-yl)propan-2-yl)-5-((R)-2-(4-methylthiazol-2-yl)pyrrolidine-1-carbonyl)benzamide]
250 to 750 | Cc1csc([C@H]2CCCN2C(=O)c2cc(C(=O)N[C@@H](Cc3ccccc3)[C@H](O)[C@H]3CC[C@@H](C)N3)cc(-n3cccc3)c2)n1 [1-58, N-((1R,2S)-1-hydroxy-1-((2R,5R)-5-methylpyrrolidin-2-yl)-3-phenylpropan-2-yl)-3-((R)-2-(4-methylthiazol-2-yl)pyrrolidine-1-carbonyl)-5-(1H-pyrrol-1-yl)benzamide]
> 750 | Cc1csc([C@H]2CCCN2C(=O)c2cccc(C(=O)N[C@@H](Cc3ccccc3)[C@@H](O)[C@H]3CCCN3)c2)n1 [1-80, N-((1S,2S)-1-hydroxy-3-phenyl-1-((R)-pyrrolidin-2-yl)propan-2-yl)-3-((R)-2-(4-methylthiazol-2-yl)pyrrolidine-1-carbonyl)benzamide]
250 to 750 | Cc1csc([C@H]2CCCN2C(=O)c2cccc(C(=O)N[C@@H](Cc3ccc(F)cc3)[C@H](O)[C@H]3CCCN3)c2)n1 [1-65, N-((1R,2S)-3-(4-fluorophenyl)-1-hydroxy-1-((R)-pyrrolidin-2-yl)propan-2-yl)-3-((R)-2-(4-methylthiazol-2-yl)pyrrolidine-1-carbonyl)benzamide]

The remaining lines, values behind:

Structure (SMILES) | Ki [nM]
CO[C@H]1CN[C@@H]([C@@H](O)[C@H](Cc2ccccc2)NC(=O)c2cc(C(=O)N3CCC[C@@H]3c3nc(C)cs3)cc(-c3ncco3)c2)C1 [1-81, N-((1R,2S)-1-hydroxy-1-((2R,4R)-4-methoxypyrrolidin-2-yl)-3-phenylpropan-2-yl)-3-((R)-2-(4-methylthiazol-2-yl)pyrrolidine-1-carbonyl)-5-(oxazol-2-yl)benzamide] | < 250
Cc1csc([C@H]2CCCN2C(=O)c2cc(C(=O)N[C@@H](Cc3cc(F)cc(F)c3)[C@H](O)[C@H]3CCCN3)cc(-c3cnccn3)c2)n1 [1-63, N-((1R,2S)-3-(3,5-difluorophenyl)-1-hydroxy-1-((R)-pyrrolidin-2-yl)propan-2-yl)-3-((R)-2-(4-methylthiazol-2-yl)pyrrolidine-1-carbonyl)-5-(pyrazin-2-yl)benzamide] | < 250
Cc1csc(CN(C)C(=O)c2cccc(C(=O)N[C@@H](Cc3ccccc3)[C@H](O)[C@H]3C[C@H](F)CN3)c2)n1 [1-60, N1-((1R,2S)-1-((2R,4S)-4-fluoropyrrolidin-2-yl)-1-hydroxy-3-phenylpropan-2-yl)-N3-methyl-N3-((4-methylthiazol-2-yl)methyl)isophthalamide] | > 750
Cc1csc(CN(C)C(=O)c2cccc(C(=O)N[C@@H](Cc3ccc(F)cc3)[C@H](O)[C@H]3CCCN3)c2)n1 [1-66, N1-((1R,2S)-3-(4-fluorophenyl)-1-hydroxy-1-((R)-pyrrolidin-2-yl)propan-2-yl)-N3-methyl-N3-((4-methylthiazol-2-yl)methyl)isophthalamide] | > 750
Cc1csc(CN(C)C(=O)c2cc(C(=O)N[C@@H](Cc3ccccc3)[C@H](O)[C@H]3CCCN3)cc(-c3ccc(F)cc3F)c2)n1 [1-30, 2′,4′-difluoro-N3-((1R,2S)-1-hydroxy-3-phenyl-1-((R)-pyrrolidin-2-yl)propan-2-yl)-N5-methyl-N5-((4-methylthiazol-2-yl)methyl)biphenyl-3,5-dicarboxamide] | < 250
Cc1csc([C@H]2CCCN2C(=O)c2cc(C(=O)N[C@@H](Cc3ccccc3)[C@H](O)[C@H]3CCCN3)cc(C(F)(F)F)c2)n1 [1-72, N-((1R,2S)-1-hydroxy-3-phenyl-1-((R)-pyrrolidin-2-yl)propan-2-yl)-3-((R)-2-(4-methylthiazol-2-yl)pyrrolidine-1-carbonyl)-5-(trifluoromethyl)benzamide] | < 250
Cc1coc([C@H]2CCCN2C(=O)c2cccc(C(=O)N[C@@H](Cc3ccccc3)[C@H](O)[C@H]3CCCN3C(=O)OC(C)(C)C)c2)n1 [1-3, (R)-tert-butyl 2-((1S,2S)-1-hydroxy-2-(3-((R)-2-(4-methyloxazol-2-yl)pyrrolidine-1-carbonyl)benzamido)-3-phenylpropyl)pyrrolidine-1-carboxylate] | > 750
Cc1csc([C@H]2CCCN2C(=O)c2cc(C(=O)N[C@@H](Cc3ccccc3)[C@H](O)[C@H]3CCCN3)cc(-n3ccnc3)c2)n1 [1-77, N-((1R,2S)-1-hydroxy-3-phenyl-1-((R)-pyrrolidin-2-yl)propan-2-yl)-3-(1H-imidazol-1-yl)-5-((R)-2-(4-methylthiazol-2-yl)pyrrolidine-1-carbonyl)benzamide] | 250 to 750
CCCN(CCC)C(=O)c1cccc(C(=O)N[C@@H](Cc2ccccc2)[C@H](O)[C@H]2CCCN2)c1 [2-12, N1-((1R,2S)-1-hydroxy-3-phenyl-1-((R)-pyrrolidin-2-yl)propan-2-yl)-N3,N3-dipropylisophthalamide, reference compound] | > 750
Cc1csc([C@H]2CCCN2C(=O)c2cc(C(=O)N[C@@H](Cc3cc(F)cc(F)c3)[C@H](O)[C@H]3CCCN3)ccn2)n1 [1-61, N-((1R,2S)-3-(3,5-difluorophenyl)-1-hydroxy-1-((R)-pyrrolidin-2-yl)propan-2-yl)-2-((R)-2-(4-methylthiazol-2-yl)pyrrolidine-1-carbonyl)isonicotinamide] | 250 to 750
O=C(N[C@@H](Cc1ccccc1)[C@H](O)[C@H]1CCCN1)c1cccc(CN2CCCC2=O)c1 [2-13, N-((1R,2S)-1-hydroxy-3-phenyl-1-((R)-pyrrolidin-2-yl)propan-2-yl)-3-((2-oxopyrrolidin-1-yl)methyl)benzamide, reference compound] | > 750
Cc1csc([C@H]2CCCN2C(=O)c2cc(C(=O)N[C@@H](Cc3cc(F)cc(F)c3)[C@H](O)[C@H]3CCCN3)cc(C3CC3)c2)n1 [1-62, 3-cyclopropyl-N-((1R,2S)-3-(3,5-difluorophenyl)-1-hydroxy-1-((R)-pyrrolidin-2-yl)propan-2-yl)-5-((R)-2-(4-methylthiazol-2-yl)pyrrolidine-1-carbonyl)benzamide] | < 250
Cc1csc([C@H]2CCCN2C(=O)c2cc(C(=O)N[C@@H](Cc3ccccc3)[C@H](O)[C@H]3CCCN3)cc(S(C)(=O)=O)c2)n1 [1-68, N-((1R,2S)-1-hydroxy-3-phenyl-1-((R)-pyrrolidin-2-yl)propan-2-yl)-3-(methylsulfonyl)-5-((R)-2-(4-methylthiazol-2-yl)pyrrolidine-1-carbonyl)benzamide] | < 250
Cc1csc([C@H]2CCCN2C(=O)c2cc(C(=O)N[C@@H](Cc3ccccc3)[C@H](O)[C@H]3CCCN3)cc([N+](=O)[O-])c2)n1 [1-55, N-((1R,2S)-1-hydroxy-3-phenyl-1-((R)-pyrrolidin-2-yl)propan-2-yl)-3-((R)-2-(4-methylthiazol-2-yl)pyrrolidine-1-carbonyl)-5-nitrobenzamide] | < 250
Cc1csc(CN(C)C(=O)c2cccc(C(=O)N[C@@H](Cc3cccc(F)c3)[C@H](O)[C@H]3CCCN3)c2)n1 [1-54, N1-((1R,2S)-3-(3-fluorophenyl)-1-hydroxy-1-((R)-pyrrolidin-2-yl)propan-2-yl)-N3-methyl-N3-((4-methylthiazol-2-yl)methyl)isophthalamide] | 250 to 750

— US20120214802A1, “PYRROLIDINE COMPOUNDS WHICH INHIBIT BETA-SECRETASE ACTIVITY AND METHODS OF USE THEREOF” (priority 2009, published 2012)
